# Where a name gives a salt, the structure may show the parent alone.
# Molecular target: HIF PHD2 (Homo sapiens, UniProt Q9GZT9)
# Experiment: PHD2 inhibition assay (TR-FRET, VCB-Eu detection of hydroxylated P564-HIF1α peptide)
# Type: biochemical
# Details: 2 nM PHD2, 100 nM P564-HIF1α peptide, 0.25 μM 2-oxoglutarate
# Procedure, shortened: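 Human PHD2 (2 nM final) preincubated 1 h at room temperature with compound and 100 μM FeCl2 in pH 6 MES buffer, 5% DMSO final. Reaction with 100 nM biotinylated P564-HIF1α peptide, 2 mM ascorbate and 0.25 μM 2-oxoglutarate for 1 h, stopped with succinate. Hydroxylation read by TR-FRET (VCB-Eu/streptavidin-APC, 655/615 nm); IC50 from 4-parameter fit of percent of control.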
# Chain of HIF PHD2 (Q9GZT9 whole entry): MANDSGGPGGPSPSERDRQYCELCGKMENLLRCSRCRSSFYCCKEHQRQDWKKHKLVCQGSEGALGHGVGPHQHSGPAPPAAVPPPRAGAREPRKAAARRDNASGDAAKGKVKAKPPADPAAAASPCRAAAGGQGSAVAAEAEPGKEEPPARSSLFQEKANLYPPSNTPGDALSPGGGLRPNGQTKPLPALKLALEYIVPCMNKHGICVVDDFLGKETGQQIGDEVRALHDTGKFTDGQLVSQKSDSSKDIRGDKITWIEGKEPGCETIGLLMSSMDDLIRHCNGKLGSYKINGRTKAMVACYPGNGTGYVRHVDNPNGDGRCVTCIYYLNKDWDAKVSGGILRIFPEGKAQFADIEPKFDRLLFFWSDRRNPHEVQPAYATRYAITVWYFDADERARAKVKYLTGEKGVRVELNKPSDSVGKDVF
row,IC50,SMILES
1,< 50 nM,"CC(=O)N1CCC(c2cc3c(O)c(C(=O)NCC(=O)O)c(=O)n(C)c3cn2)CC1 [Example 119, 2-(6-(1-Acetylpiperidin-4-yl)-4-hydroxy-1-methyl-2-oxo-1,2-dihydro-1,7-naphthyridine-3-carboxamido)acetic acid, Trifluoroacetic acid salt]"
2,100 to 500 nM,"Cc1ccc(-c2ccc3c(O)c(C(=O)NCC(=O)O)c(=O)n(C)c3n2)cc1 [Example 15, N-((4-Hydroxy-1-methyl-7-(4-methylphenyl)-2-oxo-1,2-dihydro-1,8-naphthyridin-3-yl)carbonyl)glycine]"
3,50 to 100 nM,"Cn1c(=O)c(C(=O)NCC(=O)O)c(O)c2cc(-c3cccc(N4CCCCC4)c3)cnc21 [Example 59, N-((4-Hydroxy-1-methyl-2-oxo-6-(3-(1-piperidinyl)phenyl)-1,2-dihydro-1,8-naphthyridin-3-yl)carbonyl)glycine]"
4,< 50 nM,"Cc1ncccc1-c1cc2c(O)c(C(=O)NCC(=O)O)c(=O)n(C)c2nc1C(F)(F)F [Example 92, 2-(4-Hydroxy-1-methyl-6-(2-methylpyridin-3-yl)-2-oxo-7-(trifluoromethyl)-1,2-dihydro-1,8-naphthyridine-3-carboxamido)acetic acid]"
5,100 to 500 nM,"COc1ccc(-c2cnc3c(c2)c(O)c(C(=O)NCC(=O)O)c(=O)n3C)cn1 [Example 52, N-((4-Hydroxy-1-methyl-6-(6-(methyloxy)-3-pyridinyl)-2-oxo-1,2-dihydro-1,8-naphthyridin-3-yl)carbonyl)glycine]"
6,< 50 nM,"Cn1c(=O)c(C(=O)NCC(=O)O)c(O)c2ccc(-c3ccccc3)nc21 [Example 12, 2-(4-Hydroxy-1-methyl-2-oxo-7-phenyl-1,2-dihydro-1,8-naphthyridine-3-carboxamido)acetic acid]"
7,< 50 nM,"COCC#Cc1cnc2c(O)c(C(=O)NCC(=O)O)c(=O)n(C)c2c1 [Example 10, 2-(4-Hydroxy-7-(3-methoxyprop-1-ynyl)-1-methyl-2-oxo-1,2-dihydro-1,5-naphthyridine-3-carboxamido)acetic acid]"
8,< 50 nM,"CN1CCC(c2cc3c(O)c(C(=O)NCC(=O)O)c(=O)n(C)c3cn2)CC1 [Example 117, 2-(4-Hydroxy-1-methyl-6-(1-methylpiperidin-4-yl)-2-oxo-1,2-dihydro-1,7-naphthyridine-3-carboxamido)acetic acid, Trifluoroacetic acid salt]"
9,< 50 nM,"Cn1c(=O)c(C(=O)NCC(=O)O)c(O)c2cc(I)cnc21 [Example 75, 2-(4-Hydroxy-6-iodo-1-methyl-2-oxo-1,2-dihydro-1,8-naphthyridine-3-carboxamido)acetic acid]"
10,< 50 nM,"Cn1c(=O)c(C(=O)NCC(=O)O)c(O)c2cc(-c3ccccc3)c(C(F)(F)F)nc21 [Example 90, 2-(4-Hydroxy-1-methyl-2-oxo-6-phenyl-7-(trifluoromethyl)-1,2-dihydro-1,8-naphthyridine-3-carboxamido)acetic acid]"
11,< 50 nM,"CN(C)c1cccc(-c2cnc3c(c2)c(O)c(C(=O)NCC(=O)O)c(=O)n3C)c1 [Example 50, N-((6-(3-(Dimethylamino)phenyl)-4-hydroxy-1-methyl-2-oxo-1,2-dihydro-1,8-naphthyridin-3-yl)carbonyl)glycine]"
12,50 to 100 nM,"Cn1c(=O)c(C(=O)NCC(=O)O)c(O)c2cc(-c3ccccc3N3CCCCC3)cnc21 [Example 58, N-((4-Hydroxy-1-methyl-2-oxo-6-(2-(1-piperidinyl)phenyl)-1,2-dihydro-1,8-naphthyridin-3-yl)carbonyl)glycine]"
13,< 50 nM,"Cn1c(=O)c(C(=O)NCC(=O)O)c(O)c2cc(-c3ccc(OC(F)(F)F)cc3)ncc21 [Example 110, 2-(4-Hydroxy-1-methyl-2-oxo-6-(4-(trifluoromethoxy)phenyl)-1,2-dihydro-1,7-naphthyridine-3-carboxamido)acetic acid, Trifluoroacetic acid salt.]"
14,< 50 nM,"Cn1c(=O)c(C(=O)NCC(=O)O)c(O)c2ncc(-c3cccs3)cc21 [Example 2, 2-(4-Hydroxy-1-methyl-2-oxo-7-(thiophen-2-yl)-1,2-dihydro-1,5-naphthyridine-3-carboxamido)acetic acid]"
15,100 to 500 nM,"CN1CCN(c2cc3c(O)c(C(=O)NCC(=O)O)c(=O)n(C)c3cn2)CC1 [Example 122, 2-(4-Hydroxy-1-methyl-6-(4-methylpiperazin-1-yl)-2-oxo-1,2-dihydro-1,7-naphthyridine-3-carboxamido)acetic acid, Trifluoroacetic acid salt]"
16,< 50 nM,"Cc1ccc(-c2cnc3c(c2)c(O)c(C(=O)NCC(=O)O)c(=O)n3C)c(F)n1 [Example 48, N-((6-(2-Fluoro-6-methyl-3-pyridinyl)-4-hydroxy-1-methyl-2-oxo-1,2-dihydro-1,8-naphthyridin-3-yl)carbonyl)glycine]"

row,IC50,SMILES
1,100 to 500 nM,"CC(C)Oc1cccc(-c2cnc3c(c2)c(O)c(C(=O)NCC(=O)O)c(=O)n3C)c1 [Example 38, N-((4-Hydroxy-1-methyl-6-(3-((1-methylethyl)oxy)phenyl)-2-oxo-1,2-dihydro-1,8-naphthyridin-3-yl)carbonyl)glycine]"
2,500 to 1000 nM,"Cn1c(=O)c(C(=O)N[C@@H](CO)C(=O)O)c(O)c2cc(C3=CCCCC3)cnc21 [Example 133, (S)-2-(6-cyclohexenyl-4-hydroxy-1-methyl-2-oxo-1,2-dihydro-1,8-naphthyridine-3-carboxamido)-3-hydroxypropanoic acid]"
3,100 to 500 nM,"Cn1c(=O)c(C(=O)NCC(=O)O)c(O)c2ccc(N3CCOCC3)nc21 [Example 23, 2-(4-Hydroxy-1-methyl-7-morpholino-2-oxo-1,2-dihydro-1,8-naphthyridine-3-carboxamido)acetic acid]"
4,100 to 500 nM,"C#Cc1cnc2c(c1)c(O)c(C(=O)NCC(=O)O)c(=O)n2C [Example 80, 2-(6-Ethynyl-4-hydroxy-1-methyl-2-oxo-1,2-dihydro-1,8-naphthyridine-3-carboxamido)acetic acid]"
5,< 50 nM,"CC(=O)N1CC=C(c2cc3c(O)c(C(=O)NCC(=O)O)c(=O)n(C)c3cn2)CC1 [Example 118, 2-(6-(1-Acetyl-1,2,3,6-tetrahydropyridin-4-yl)-4-hydroxy-1-methyl-2-oxo-1,2-dihydro-1,7-naphthyridine-3-carboxamido)acetic acid, Trifluoroacetic acid salt]"
6,100 to 500 nM,"CC(C)Oc1ccccc1-c1cnc2c(c1)c(O)c(C(=O)NCC(=O)O)c(=O)n2C [Example 36, N-((4-Hydroxy-1-methyl-6-(2-((1-methylethyl)oxy)phenyl)-2-oxo-1,2-dihydro-1,8-naphthyridin-3-yl)carbonyl)glycine]"
7,< 50 nM,"COc1ccc2c(O)c(C(=O)NCC(=O)O)c(=O)n(C)c2n1 [Example 25, 2-(4-Hydroxy-7-methoxy-1-methyl-2-oxo-1,2-dihydro-1,8-naphthyridine-3-carboxamido)acetic acid]"
8,100 to 500 nM,"C[C@H](NC(=O)c1c(O)c2ccc(C(F)(F)F)nc2[nH]c1=O)C(=O)O [Example 88, (S)-2-(4-Hydroxy-2-oxo-7-(trifluoromethyl)-1,2-dihydro-1,8-naphthyridine-3-carboxamido)propanoic acid]"
9,< 50 nM,"Cn1c(=O)c(C(=O)NCC(=O)O)c(O)c2ncc(C#N)cc21 [Example 6, 2-(7-Cyano-4-hydroxy-1-methyl-2-oxo-1,2-dihydro-1,5-naphthyridine-3-carboxamido)acetic acid]"
10,< 50 nM,"Cn1c(=O)c(C(=O)NCC(=O)O)c(O)c2cc(C3CCCCO3)cnc21 (racemic) [Example 68, (R,S)-2-(4-Hydroxy-1-methyl-2-oxo-6-(tetrahydro-2 H-pyran-2-yl)-1,2-dihydro-1,8-naphthyridine-3-carboxamido)acetic acid]"
11,50 to 100 nM,"Cn1c(=O)c(C(=O)NCC(=O)O)c(O)c2cc(C3CCCCO3)cnc21 (single isomer, unassigned) [Example 69, (R)-2-(4-hydroxy-1-methyl-2-oxo-6-(tetrahydro-2 H-pyran-2-yl)-1,2-dihydro-1,8-naphthyridine-3-carboxamido)acetic acid or (S)-2-(4-hydroxy-1-methyl-2-oxo-6-(tetrahydro-2 H-pyran-2-yl)-1,2-dihydro-1,8-naphthyridine-3-carboxamido)acetic acid]"
12,< 50 nM,"Cn1c(=O)c(C(=O)NCC(=O)O)c(O)c2ccc(C#CC3CC3)nc21 [Example 21, 2-(7-(2-Cyclopropylethynyl)-4-hydroxy-1-methyl-2-oxo-1,2-dihydro-1,8-naphthyridine-3-carboxamido)acetic acid]"
13,< 50 nM,"Cn1c(=O)c(C(=O)NCC(=O)O)c(O)c2ccnc(C(F)(F)F)c21 [Example 127, 2-(4-Hydroxy-1-methyl-2-oxo-8-(trifluoromethyl)-1,2-dihydro-1,7-naphthyridine-3-carboxamido)acetic acid]"
14,< 50 nM,"Cn1c(=O)c(C(=O)NCC(=O)O)c(O)c2cc(-c3ccc4c(c3)CCO4)ncc21 [Example 108, N-((6-(2,3-Dihydro-1-benzofuran-5-yl)-4-hydroxy-1-methyl-2-oxo-1,2-dihydro-1,7-naphthyridin-3-yl)carbonyl)glycine]"
15,100 to 500 nM,"Cc1cccc(C)c1-c1cnc2c(c1)c(O)c(C(=O)NCC(=O)O)c(=O)n2C [Example 40, N-((6-(2,6-Dimethylphenyl)-4-hydroxy-1-methyl-2-oxo-1,2-dihydro-1,8-naphthyridin-3-yl)carbonyl)glycine]"

row,SMILES,IC50
1,"Cn1c(=O)c(C(=O)NCC(=O)O)c(O)c2ccc(C#C[Si](C)(C)C)nc21 [Example 19, 2-(4-Hydroxy-1-methyl-2-oxo-7-(2-(trimethylsilyl)ethynyl)-1,2-dihydro-1,8-naphthyridine-3-carboxamido)acetic acid]",50 to 100 nM
2,"Cn1c(=O)c(C(=O)NCC(=O)O)c(O)c2cc(C3CCCO3)c(C(F)(F)F)nc21 (racemic) [Example 99, (R,S) 2-(4-Hydroxy-1-methyl-2-oxo-6-(tetrahydrofuran-2-yl)-7-(trifluoromethyl)-1,2-dihydro-1,8-naphthyridine-3-carboxamido)acetic acid]",< 50 nM

# Source: patent US8048892B2, “Azaquinolone based compounds exhibiting prolyl hydroxylase inhibitory activity, compositions, and uses thereof” (Amgen Inc., priority 2006, dated 2011)
